The test system of one test is hairless mouse (SKH-1). Description: UV-induced skin damage in hairless mouse (observation, hematoxylin-eosin staining). The following applies: 200 μL of 1 mM in acetone topically every 24 hours, UV 2.5 kJ/m^2 4 times. In kind it is in vivo. The procedure: In order to confirm the in vitro experiment result performed on the human keratinocyte HaCaT cells in an animal model, experiment was carried out as follows using hairless mouse (SKH-1). Test groups were as follows: non-treated group—treated with acetone only without UV irradiation; test group A—treated with 200 μL of 1 mM capsiate dissolved in acetone every 24 hours without UV irradiation; control group—treated with UV and acetone; test group B—treated with UV and 200 μL of 1 mM capsiate dissolved in acetone every 24 hours (Unspecified conditions are the same as in Examples 5-7.).
Capsiate was applied on the back of the mouse. 1 hour later, UV was irradiated at an intensity of 2.5 kJ/m^2. 1 hour later, capsiate was applied again at the same concentration in order to prevent rash which may occur immediately after UV irradiation. Thereafter, capsiate was applied every 24 hours and UV irradiation was carried out every other day at an intensity of 2.5 kJ/m^2 for 4 times. In order to investigate the change of tissue and intracellular mechanism (signaling), the mouse was euthanized 1 hour after the final UV irradiation. Skin tissue was taken from the back of the mouse and subjected to skin biopsy following observation.
Hematoxylin-eosin staining was carried out in order to investigate the overall change in the skin tissue.

A further test has as its system MMP-9. Description: Zymography of secreted MMP-9 after UV. It is filed as cell-based, human. The following applies: HaCaT culture medium; 10, 25, 50 μM; UV 100 J/m^2; 36 hours. How it is done:
Zymography was carried out in order to investigate the decrease of expression and activity of MMP-2 and MMP-9 in protein level.
5×10^5 HaCaT cells were placed on a 60 mm Petri dish and cultured for 24 hours in DMEM containing 10% FBS. Subsequently, the cells were cultured for 24 hours in DMEM containing 1% FBS until starvation. Then, after treating with capsiate at different concentrations (10 μM, 25 μM, 50 μM) for 30 minutes, followed by washing 3 times with PBS, UV was irradiated at an intensity of 100 J/m^2. Immediately after the UV irradiation, the cells were washed again with PBS and further cultured for 36 hours in DMEM containing 1% FBS, which was treated with capsiate at the same concentration as in the pre-treatment. After collecting the culture medium, the activity of MMP-2 and MMP-9 proteins secreted from the cells into the medium was measured. To this end, the mediums obtained from the same number of cells were concentrated to the same volume, and the temperature was maintained at 4° C. in order to avoid the effect on the protein activity.
Thus prepared sample was subjected to electrophoresis at 4° C. using 7.5% acrylamide gel containing gelatin but without sodium dodecyl sulfate (SDS). […]

`COc1cc(COC(=O)CCCC/C=C/C(C)C)ccc1O` [capsiate]: in the test with hairless mouse (SKH-1), the “blood vessels and edema (hematoxylin-eosin staining)” value is “also decreased”; the “hyperplasia in the epidermis (hematoxylin-eosin staining)” value is on record as “decreased remarkably”. Besides, in the test with hairless mouse (SKH-1) (vs UV control), the “blood vessel thickness and blood in back skin tissue” value was “less blood vessel thickness and less blood”; the “size and depth of wound induced by UV irradiation” value is “less severe”. Further, the “expression and activity of MMP-9 (zymography)” value in the test with MMP-9 is “inhibited expression and activity”.
